Results: PubChem BioAssay (NCI)
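All cell lines were grown in 96-well plates and treated with compound for 48 hours. Here, GI50 denotes the concentration required for 50% inhibition of growth. At the TGI there is no net growth.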

Assays:
Test in all cases: NCI-60 cell line screen, 48 h
[1] = test system: 786-0 renal
[2] = test system: A498 renal
[3] = test system: A549 NSCLC
[4] = test system: ACHN renal
[5] = test system: BT-549 breast
[6] = test system: CAKI-1 renal
[7] = test system: CCRF-CEM leukemia
[8] = test system: COLO 205 colon
[9] = test system: DU-145 prostate
[10] = test system: EKVX NSCLC
[11] = test system: HCC-2998 colon
[12] = test system: HCT-116 colon
[13] = test system: HCT-15 colon
[14] = test system: HL-60(TB) leukemia
[15] = test system: HOP-62 NSCLC
[16] = test system: HOP-92 NSCLC
[17] = test system: HS 578T breast
[18] = test system: HT29 colon
[19] = test system: IGROV1 ovarian
[20] = test system: K-562 leukemia
[21] = test system: KM12 colon
[22] = test system: LOX IMVI melanoma
[23] = test system: M14 melanoma
[24] = test system: MALME-3M melanoma
[25] = test system: MCF7 breast
[26] = test system: MDA-MB-231 breast
[27] = test system: MDA-MB-435
[28] = test system: MOLT-4 leukemia
[29] = test system: NCI-H226 lung
[30] = test system: NCI-H23 lung
[31] = test system: NCI-H460 lung
[32] = test system: NCI-H522 lung
[33] = test system: NCI/ADR-RES ovarian
[34] = test system: OVCAR-3 ovarian
[35] = test system: OVCAR-4 ovarian
[36] = test system: OVCAR-5 ovarian
[37] = test system: OVCAR-8 ovarian
[38] = test system: PC-3 prostate
[39] = test system: RPMI-8226 leukemia
[40] = test system: RXF 393 renal
[41] = test system: SF-268 CNS
[42] = test system: SF-295 CNS
[43] = test system: SF-539 CNS
[44] = test system: SK-MEL-2 melanoma
[45] = test system: SK-MEL-28 melanoma
[46] = test system: SK-MEL-5 melanoma
[47] = test system: SK-OV-3 ovarian
[48] = test system: SN12C renal
[49] = test system: SNB-19 CNS
[50] = test system: SNB-75 CNS
[51] = test system: SR leukemia
[52] = test system: SW-620 colon
[53] = test system: T-47D breast
[54] = test system: TK-10 renal
[55] = test system: U251 CNS
[56] = test system: UACC-257 melanoma
[57] = test system: UACC-62 melanoma
[58] = test system: UO-31 renal

Which GI50 [1] does the source give for `CCCN(CCC)c1ccc(CO)c(Cl)c1` here?
Its GI50 is 16.8 µM.

What about the TGI [1] of the same compound?
The TGI was 45.6 µM.

And the GI50 [2]?
The GI50 was 0.117 µM.

And the TGI [2]?
The TGI was 0.253 µM.

What about the GI50 [3] of the same compound?
The GI50 was 7.2 µM.

What about the TGI [3] of the same compound?
The TGI was over 63 µM.

And the GI50 [4]?
The GI50 was 38.5 µM.

What about the TGI [4] of the same compound?
The TGI was over 100 µM.

What about the GI50 [5] of the same compound?
The GI50 was 22 µM.

And the TGI [5]?
Its TGI is over 60.2 µM.

And the GI50 [6]?
Its GI50 is 5.77 µM.

What about the TGI [6] of the same compound?
Its TGI is 50.6 µM.

What about the GI50 [7] of the same compound?
The GI50 was 17.4 µM.

What about the TGI [7] of the same compound?
Its TGI is 51.7 µM.

And the GI50 [8]?
The GI50 was 3.5 µM.

And the TGI [8]?
Its TGI is 10.1 µM.

What about the GI50 [9] of the same compound?
The GI50 was 52 µM.

What about the TGI [9] of the same compound?
Its TGI is over 100 µM.

And the GI50 [10]?
Its GI50 is 18.2 µM.

What about the TGI [10] of the same compound?
Its TGI is 59 µM.

What about the GI50 [11] of the same compound?
The GI50 was 13.5 µM.

What about the TGI [11] of the same compound?
The TGI was 48.2 µM.

And the GI50 [12]?
The GI50 was 0.44 µM.

What about the TGI [12] of the same compound?
Its TGI is 7.88 µM.

What about the GI50 [13] of the same compound?
The GI50 was 20.4 µM.

And the TGI [13]?
Its TGI is over 80.9 µM.

What about the GI50 [14] of the same compound?
Its GI50 is 19.5 µM.

What about the TGI [14] of the same compound?
Its TGI is 44.6 µM.

And the GI50 [15]?
Its GI50 is 8.25 µM.

And the TGI [15]?
The TGI was over 100 µM.

And the GI50 [16]?
The GI50 was 9.43 µM.

And the TGI [16]?
Its TGI is 31.2 µM.

What about the GI50 [17] of the same compound?
Its GI50 is 25 µM.

And the TGI [17]?
Its TGI is over 91.9 µM.

What about the GI50 [18] of the same compound?
Its GI50 is 9.75 µM.

And the TGI [18]?
The TGI was over 52.4 µM.

What about the GI50 [19] of the same compound?
The GI50 was 0.401 µM.

And the TGI [19]?
Its TGI is 2.41 µM.

What about the GI50 [20] of the same compound?
The GI50 was 6.21 µM.

And the TGI [20]?
Its TGI is 37.7 µM.

And the GI50 [21]?
The GI50 was 35 µM.

What about the TGI [21] of the same compound?
The TGI was over 100 µM.

And the GI50 [22]?
Its GI50 is 30.4 µM.

And the TGI [22]?
Its TGI is over 100 µM.

What about the GI50 [23] of the same compound?
Its GI50 is 37.5 µM.

What about the TGI [23] of the same compound?
The TGI was 97.4 µM.

What about the GI50 [24] of the same compound?
The GI50 was 29.1 µM.

And the TGI [24]?
Its TGI is over 78.5 µM.

What about the GI50 [25] of the same compound?
Its GI50 is 1.23 µM.

What about the TGI [25] of the same compound?
The TGI was 33 µM.

And the GI50 [26]?
Its GI50 is 31.6 µM.

What about the TGI [26] of the same compound?
Its TGI is over 68.4 µM.

And the GI50 [27]?
The GI50 was 37.1 µM.

What about the TGI [27] of the same compound?
The TGI was over 100 µM.

And the GI50 [28]?
Its GI50 is 23.3 µM.

And the TGI [28]?
The TGI was 62.6 µM.

And the GI50 [29]?
The GI50 was 0.166 µM.

What about the TGI [29] of the same compound?
The TGI was 0.419 µM.

What about the GI50 [30] of the same compound?
The GI50 was 23.2 µM.

What about the TGI [30] of the same compound?
The TGI was over 100 µM.

What about the GI50 [31] of the same compound?
Its GI50 is 2.13 µM.

And the TGI [31]?
Its TGI is 32.1 µM.

What about the GI50 [32] of the same compound?
Its GI50 is 16.4 µM.

And the TGI [32]?
Its TGI is 38.9 µM.

What about the GI50 [33] of the same compound?
The GI50 was 23.6 µM.

And the TGI [33]?
Its TGI is over 89.7 µM.

And the GI50 [34]?
The GI50 was 1.62 µM.

And the TGI [34]?
The TGI was 5.07 µM.

And the GI50 [35]?
The GI50 was 1.21 µM.

And the TGI [35]?
The TGI was 7.79 µM.

What about the GI50 [36] of the same compound?
The GI50 was 0.257 µM.

And the TGI [36]?
The TGI was 0.718 µM.

And the GI50 [37]?
Its GI50 is 34.9 µM.

And the TGI [37]?
The TGI was over 100 µM.

What about the GI50 [38] of the same compound?
The GI50 was 22.8 µM.

What about the TGI [38] of the same compound?
Its TGI is 89.6 µM.

And the GI50 [39]?
The GI50 was 5.93 µM.

And the TGI [39]?
Its TGI is 28.9 µM.

What about the GI50 [40] of the same compound?
Its GI50 is 7.37 µM.

What about the TGI [40] of the same compound?
Its TGI is 29.5 µM.

What about the GI50 [41] of the same compound?
Its GI50 is 47.3 µM.

And the TGI [41]?
Its TGI is over 100 µM.

What about the GI50 [42] of the same compound?
The GI50 was 5.45 µM.

What about the TGI [42] of the same compound?
The TGI was over 78.9 µM.

What about the GI50 [43] of the same compound?
The GI50 was 40.2 µM.

What about the TGI [43] of the same compound?
The TGI was over 100 µM.

What about the GI50 [44] of the same compound?
Its GI50 is 9.47 µM.

And the TGI [44]?
The TGI was 33.9 µM.

And the GI50 [45]?
The GI50 was 42.5 µM.

And the TGI [45]?
The TGI was over 100 µM.

And the GI50 [46]?
Its GI50 is 12.9 µM.

And the TGI [46]?
The TGI was 27.3 µM.

And the GI50 [47]?
The GI50 was 31.3 µM.

What about the TGI [47] of the same compound?
Its TGI is over 100 µM.

What about the GI50 [48] of the same compound?
The GI50 was 39.2 µM.

And the TGI [48]?
The TGI was over 100 µM.

And the GI50 [49]?
Its GI50 is over 63.8 µM.

What about the TGI [49] of the same compound?
The TGI was over 100 µM.

And the GI50 [50]?
The GI50 was 25.8 µM.

And the TGI [50]?
Its TGI is over 96.7 µM.

What about the GI50 [51] of the same compound?
The GI50 was 19.3 µM.

What about the TGI [51] of the same compound?
The TGI was 45.9 µM.

And the GI50 [52]?
Its GI50 is 6.41 µM.

And the TGI [52]?
The TGI was over 100 µM.

And the GI50 [53]?
The GI50 was 0.459 µM.

What about the TGI [53] of the same compound?
Its TGI is 2.91 µM.

What about the GI50 [54] of the same compound?
The GI50 was 0.223 µM.

And the TGI [54]?
The TGI was 0.663 µM.

And the GI50 [55]?
The GI50 was 10.3 µM.

And the TGI [55]?
The TGI was over 100 µM.

What about the GI50 [56] of the same compound?
The GI50 was 0.352 µM.

And the TGI [56]?
Its TGI is 1.49 µM.

What about the GI50 [57] of the same compound?
Its GI50 is 0.485 µM.

And the TGI [57]?
Its TGI is 4.79 µM.

And the GI50 [58]?
The GI50 was 35.4 µM.

What about the TGI [58] of the same compound?
Its TGI is over 100 µM.
